Here are results for three compounds from ChEMBL document CHEMBL1201862, “PubChem BioAssay data set” (2004).

By EC50 is commonly meant the concentration that produces a half-maximal response. In general, IC50 refers to the concentration at which inhibition is half-maximal.

SMILES strings stand for the structures. Active and inactive are the calls of the source.

Experiment [1] in a line: NIH-3T3 fibroblast cytotoxicity, dose response, cytotoxicity control, cell-based, fluorescence, Alamar Blue, secondary assay (AID 2327).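 Further: NIH-3T3 mouse fibroblasts cultured with fluconazole at 8 µg/mL.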 In kind it is functional. (In general: Resazurin is reduced to fluorescent resorufin, in cell work by metabolically active cells.)
Experiment [2] can be described thus: fluconazole-exposed Candida albicans growth modulators – fluorescence, retest, confirmation (AID 2467). In kind it is functional, cell-based.
Experiment [3] can be described thus: viability of PTEN-deleted HCT116 cells – cell-based, HCT116 PTEN knockout, dose response (AID 1047).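 Further: HCT116 colon tumor cells with PTEN knocked out; cells exposed to compound for 60 hours before readout; potency for loss of cell viability measured by luminescence.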 In kind it is functional.
The target in experiment [4] is T1, Sphingosine 1-phosphate receptor 4 (Homo sapiens, UniProt O95977).
T1 sequence (O95977 whole entry): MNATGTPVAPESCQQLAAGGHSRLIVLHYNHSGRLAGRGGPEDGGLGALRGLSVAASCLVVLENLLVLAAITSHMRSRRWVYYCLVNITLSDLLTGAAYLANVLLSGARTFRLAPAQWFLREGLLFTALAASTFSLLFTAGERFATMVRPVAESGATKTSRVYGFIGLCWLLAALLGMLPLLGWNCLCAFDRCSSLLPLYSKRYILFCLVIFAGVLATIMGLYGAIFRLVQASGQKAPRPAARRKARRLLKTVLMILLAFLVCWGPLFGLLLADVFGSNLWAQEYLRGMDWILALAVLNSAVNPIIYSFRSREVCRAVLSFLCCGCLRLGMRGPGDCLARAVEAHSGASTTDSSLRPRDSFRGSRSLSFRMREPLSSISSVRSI
The experiment in a line: Late stage fluorescence dose response cell-based screening assay for antagonists of the Sphingosine 1-Phosphate Receptor 4 (S1P4). [Related pubchem assays: 1524 (Confirmation screen (S1P4 antagonists).), 1510 (Primary screen (S1P4 antagonists).), 1853 (Summary AID (S1P4 antagonists).), 1692 (Dose response screen (S1P4 antagonists).)]. In kind it is functional.

The nature of experiment [5]: viability of HCT116 lacking mutant beta-catenin – cell-based, human colon tumor, dose response (AID 1045).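 Further: HCT116 colon tumor cells with beta catenin knocked out; cells exposed to compound for 60 hours.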 In kind it is functional.
Experiment [6] concerns the target T1, Sphingosine 1-phosphate receptor 4. Kind of experiment: Fluorescence dose response cell-based high throughput screening assay for antagonists of the Sphingosine 1-Phosphate Receptor 4 (S1P4). [Related pubchem assays: 1524 (Confirmation in triplicates.), 1510 (Primary screen.)]. In kind it is functional.
The target in experiment [7] is Sphingosine 1-phosphate receptor 1 (Homo sapiens, UniProt P21453). In kind it is functional.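 Further: Tango beta-arrestin reporter U2OS cells stimulated with S1P near its EC80; inhibitor potency meaning antagonism of receptor activation by the natural agonist.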
For experiment [8], the target named is T2, Heat shock factor protein 1 (Mus musculus, UniProt P38532).
T2 sequence (P38532 whole entry): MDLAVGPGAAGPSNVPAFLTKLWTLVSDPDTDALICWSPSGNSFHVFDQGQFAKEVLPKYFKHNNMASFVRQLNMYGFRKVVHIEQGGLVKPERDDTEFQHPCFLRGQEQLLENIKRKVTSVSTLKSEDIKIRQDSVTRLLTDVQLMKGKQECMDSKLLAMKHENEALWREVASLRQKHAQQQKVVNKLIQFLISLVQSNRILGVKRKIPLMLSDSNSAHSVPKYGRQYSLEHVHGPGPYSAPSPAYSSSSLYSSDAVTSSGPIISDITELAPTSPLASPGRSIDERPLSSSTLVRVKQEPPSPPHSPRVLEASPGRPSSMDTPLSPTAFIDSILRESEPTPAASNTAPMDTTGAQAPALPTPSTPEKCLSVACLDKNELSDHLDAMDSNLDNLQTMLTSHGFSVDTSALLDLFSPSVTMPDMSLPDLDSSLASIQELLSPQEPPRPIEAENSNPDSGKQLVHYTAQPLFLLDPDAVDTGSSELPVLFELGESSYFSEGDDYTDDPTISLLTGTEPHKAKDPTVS
The experiment in a line: enhancement of HSF1-driven luciferase signal – cell-based, NIH3T3, luminescence, dose retest, confirmation (AID 435004).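 Further: stress induced by proteasome inhibitor MG132 added 30 min after compound; luciferase reporter driven by HSF1 response element in NIH3T3 cells; actives raise luminescence as potentiators of the MG132 stress response.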 In kind it is functional.

Experiment [9] has as its target T3, Replicative DNA helicase DnaB (Mycobacterium tuberculosis, UniProt P9WMR3).
T3 sequence (P9WMR3 whole entry): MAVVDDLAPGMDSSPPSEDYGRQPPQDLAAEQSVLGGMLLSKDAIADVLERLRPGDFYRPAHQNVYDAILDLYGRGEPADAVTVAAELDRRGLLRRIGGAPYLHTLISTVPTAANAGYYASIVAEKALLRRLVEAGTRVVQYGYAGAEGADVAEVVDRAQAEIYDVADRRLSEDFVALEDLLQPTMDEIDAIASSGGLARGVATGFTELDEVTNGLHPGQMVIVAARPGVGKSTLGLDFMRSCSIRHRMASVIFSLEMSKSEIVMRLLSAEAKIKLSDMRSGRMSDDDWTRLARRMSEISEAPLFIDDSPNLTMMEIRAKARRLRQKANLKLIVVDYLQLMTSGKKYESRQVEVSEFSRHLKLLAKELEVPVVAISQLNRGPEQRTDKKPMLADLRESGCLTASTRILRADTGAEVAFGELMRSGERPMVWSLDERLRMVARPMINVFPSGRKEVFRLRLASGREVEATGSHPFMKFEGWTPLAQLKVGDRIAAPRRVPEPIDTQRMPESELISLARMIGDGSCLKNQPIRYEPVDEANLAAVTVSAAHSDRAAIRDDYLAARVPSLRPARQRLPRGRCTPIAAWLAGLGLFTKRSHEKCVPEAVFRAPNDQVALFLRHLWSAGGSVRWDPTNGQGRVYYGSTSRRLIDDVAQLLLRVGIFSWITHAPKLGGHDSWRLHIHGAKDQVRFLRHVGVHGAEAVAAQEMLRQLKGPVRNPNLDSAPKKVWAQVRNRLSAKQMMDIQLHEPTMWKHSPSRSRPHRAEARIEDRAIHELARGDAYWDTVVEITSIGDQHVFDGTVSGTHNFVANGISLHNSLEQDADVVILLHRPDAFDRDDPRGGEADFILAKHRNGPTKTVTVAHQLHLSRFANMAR
Kind of experiment: DnaB intein splicing inhibitors, dose response, biochemical, cell-free fluorescence (AID 449749). In kind it is functional.

For experiment [10], the target named is T4, Protein RecA (Mycobacterium tuberculosis, UniProt P9WHJ3).
T4 sequence (P9WHJ3 whole entry): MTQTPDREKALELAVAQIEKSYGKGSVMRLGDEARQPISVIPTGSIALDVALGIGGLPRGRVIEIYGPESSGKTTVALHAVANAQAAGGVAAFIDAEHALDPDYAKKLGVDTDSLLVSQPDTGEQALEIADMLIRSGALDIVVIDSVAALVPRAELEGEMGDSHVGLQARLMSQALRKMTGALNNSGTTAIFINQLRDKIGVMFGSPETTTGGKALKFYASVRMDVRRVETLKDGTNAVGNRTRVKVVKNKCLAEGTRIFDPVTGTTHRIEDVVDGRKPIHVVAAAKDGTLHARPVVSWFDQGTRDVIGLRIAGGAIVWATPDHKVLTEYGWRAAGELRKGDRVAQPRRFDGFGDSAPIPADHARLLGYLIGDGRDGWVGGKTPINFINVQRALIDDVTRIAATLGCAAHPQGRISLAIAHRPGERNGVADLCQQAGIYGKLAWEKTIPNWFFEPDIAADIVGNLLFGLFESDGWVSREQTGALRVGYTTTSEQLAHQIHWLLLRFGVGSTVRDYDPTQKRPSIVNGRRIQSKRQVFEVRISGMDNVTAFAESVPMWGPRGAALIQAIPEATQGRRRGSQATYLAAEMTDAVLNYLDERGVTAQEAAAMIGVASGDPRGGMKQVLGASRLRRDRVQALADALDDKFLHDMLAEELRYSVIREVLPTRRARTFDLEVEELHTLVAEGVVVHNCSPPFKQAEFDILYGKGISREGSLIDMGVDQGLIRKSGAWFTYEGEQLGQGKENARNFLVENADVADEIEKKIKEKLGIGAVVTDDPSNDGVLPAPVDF
Kind of experiment: Fluorescence Cell-Free Homogeneous Dose Retest to Identify Inhibitors of RecA-Intein Splicing Activity. [Related pubchem assays (depositor defined):AID2097, AID2223, AID489010, AID492950]. In kind it is functional.

Experiment [11] deals with Cytochrome P450 2C19 (Homo sapiens, UniProt P33261). Kind of experiment: qHTS Assay for Inhibitors and Substrates of Cytochrome P450 2C19. [Related pubchem assays: 410 ]. As to conditions: read-out: Potency. In kind it is ADME. For orientation: In qHTS, concentration-response curves come from the screen itself.
The target of experiment [12] is Cytochrome P450 2D6 (Homo sapiens, UniProt P10635). The experiment in a line: qHTS Assay for Inhibitors and Substrates of Cytochrome P450 2D6. [Related pubchem assays: 410 ]. In kind it is ADME. As to conditions: read-out: Potency.
The target in experiment [13] is Peroxisome proliferator-activated receptor gamma/Nuclear receptor corepressor 2 (Homo sapiens, UniProt P37231+Q9Y618). The experiment in a line: Counterscreen for NR2E3 inverse agonists: TR-FRET-based biochemical high throughput dose response assay to identify inverse agonists of the interaction between peroxisome proliferator-activated receptor gamma (PPARg) and nuclear receptor co-repressor 2 (NCOR2). In kind it is functional.

For experiment [14], the target named is Photoreceptor-specific nuclear receptor (Homo sapiens, UniProt Q9Y5X4). The experiment in a line: ligands suppressing NR2E3 nuclear receptor activity – biochemical, TR-FRET, dose response (AID 463256). In kind it is functional. On the technique in general: TR-FRET usually uses a lanthanide donor and a delayed reading to cut background.
Chain of Photoreceptor-specific nuclear receptor (Q9Y5X4 whole entry): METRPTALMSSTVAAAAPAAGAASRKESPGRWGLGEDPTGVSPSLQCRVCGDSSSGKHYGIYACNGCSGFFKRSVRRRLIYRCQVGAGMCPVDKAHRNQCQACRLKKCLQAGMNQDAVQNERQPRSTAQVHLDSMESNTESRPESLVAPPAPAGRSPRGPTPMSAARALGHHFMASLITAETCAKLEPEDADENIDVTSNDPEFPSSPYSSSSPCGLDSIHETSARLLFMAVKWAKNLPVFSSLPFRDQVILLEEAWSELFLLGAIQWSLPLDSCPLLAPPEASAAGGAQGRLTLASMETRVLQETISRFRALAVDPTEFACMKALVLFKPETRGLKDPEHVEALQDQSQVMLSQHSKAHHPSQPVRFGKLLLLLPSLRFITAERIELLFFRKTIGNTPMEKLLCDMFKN

Chain of Cytochrome P450 2D6 (P10635 whole entry): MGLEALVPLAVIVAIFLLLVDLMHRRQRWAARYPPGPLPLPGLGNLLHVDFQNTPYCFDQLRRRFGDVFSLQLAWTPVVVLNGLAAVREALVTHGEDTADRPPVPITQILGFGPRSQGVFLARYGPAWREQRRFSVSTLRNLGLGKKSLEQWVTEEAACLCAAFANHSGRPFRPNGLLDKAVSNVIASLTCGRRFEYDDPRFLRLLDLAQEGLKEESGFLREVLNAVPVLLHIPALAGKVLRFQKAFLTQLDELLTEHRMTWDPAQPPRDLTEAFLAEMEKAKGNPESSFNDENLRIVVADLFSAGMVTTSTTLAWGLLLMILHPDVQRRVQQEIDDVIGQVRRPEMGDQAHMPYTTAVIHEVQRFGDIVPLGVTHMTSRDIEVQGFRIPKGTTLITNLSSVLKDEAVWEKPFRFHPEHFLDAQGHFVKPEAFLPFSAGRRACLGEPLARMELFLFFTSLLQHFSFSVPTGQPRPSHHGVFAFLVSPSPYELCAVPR
Chain of Cytochrome P450 2C19 (P33261 whole entry): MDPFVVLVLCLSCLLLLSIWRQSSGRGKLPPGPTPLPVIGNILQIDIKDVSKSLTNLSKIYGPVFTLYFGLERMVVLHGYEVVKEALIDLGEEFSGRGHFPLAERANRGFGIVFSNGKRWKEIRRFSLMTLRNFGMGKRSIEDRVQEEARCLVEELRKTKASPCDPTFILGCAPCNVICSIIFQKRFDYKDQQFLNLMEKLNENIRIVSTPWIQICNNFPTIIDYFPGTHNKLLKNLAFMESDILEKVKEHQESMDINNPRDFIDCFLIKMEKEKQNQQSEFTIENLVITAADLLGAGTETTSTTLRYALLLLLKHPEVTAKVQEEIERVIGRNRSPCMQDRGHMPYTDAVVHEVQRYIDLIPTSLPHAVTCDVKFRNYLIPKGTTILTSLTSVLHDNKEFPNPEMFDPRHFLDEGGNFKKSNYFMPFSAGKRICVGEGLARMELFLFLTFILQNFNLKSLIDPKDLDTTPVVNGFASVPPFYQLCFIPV
Chain of Peroxisome proliferator-activated receptor gamma/Nuclear receptor corepressor 2 (P37231 whole entry): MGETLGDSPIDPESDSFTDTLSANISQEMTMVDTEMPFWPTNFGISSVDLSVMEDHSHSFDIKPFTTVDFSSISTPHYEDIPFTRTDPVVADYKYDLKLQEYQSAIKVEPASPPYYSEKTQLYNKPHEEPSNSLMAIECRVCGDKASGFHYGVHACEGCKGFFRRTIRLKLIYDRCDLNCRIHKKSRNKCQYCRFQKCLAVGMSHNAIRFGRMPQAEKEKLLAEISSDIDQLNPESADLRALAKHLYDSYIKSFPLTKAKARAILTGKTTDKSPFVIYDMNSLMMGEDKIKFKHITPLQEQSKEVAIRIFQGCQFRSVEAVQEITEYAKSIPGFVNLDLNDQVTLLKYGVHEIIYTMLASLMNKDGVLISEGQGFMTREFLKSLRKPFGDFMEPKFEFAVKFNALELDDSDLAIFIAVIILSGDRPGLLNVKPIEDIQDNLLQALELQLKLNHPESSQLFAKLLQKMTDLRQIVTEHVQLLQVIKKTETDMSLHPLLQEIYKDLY
Chain of Peroxisome proliferator-activated receptor gamma/Nuclear receptor corepressor 2 (Q9Y618 whole entry): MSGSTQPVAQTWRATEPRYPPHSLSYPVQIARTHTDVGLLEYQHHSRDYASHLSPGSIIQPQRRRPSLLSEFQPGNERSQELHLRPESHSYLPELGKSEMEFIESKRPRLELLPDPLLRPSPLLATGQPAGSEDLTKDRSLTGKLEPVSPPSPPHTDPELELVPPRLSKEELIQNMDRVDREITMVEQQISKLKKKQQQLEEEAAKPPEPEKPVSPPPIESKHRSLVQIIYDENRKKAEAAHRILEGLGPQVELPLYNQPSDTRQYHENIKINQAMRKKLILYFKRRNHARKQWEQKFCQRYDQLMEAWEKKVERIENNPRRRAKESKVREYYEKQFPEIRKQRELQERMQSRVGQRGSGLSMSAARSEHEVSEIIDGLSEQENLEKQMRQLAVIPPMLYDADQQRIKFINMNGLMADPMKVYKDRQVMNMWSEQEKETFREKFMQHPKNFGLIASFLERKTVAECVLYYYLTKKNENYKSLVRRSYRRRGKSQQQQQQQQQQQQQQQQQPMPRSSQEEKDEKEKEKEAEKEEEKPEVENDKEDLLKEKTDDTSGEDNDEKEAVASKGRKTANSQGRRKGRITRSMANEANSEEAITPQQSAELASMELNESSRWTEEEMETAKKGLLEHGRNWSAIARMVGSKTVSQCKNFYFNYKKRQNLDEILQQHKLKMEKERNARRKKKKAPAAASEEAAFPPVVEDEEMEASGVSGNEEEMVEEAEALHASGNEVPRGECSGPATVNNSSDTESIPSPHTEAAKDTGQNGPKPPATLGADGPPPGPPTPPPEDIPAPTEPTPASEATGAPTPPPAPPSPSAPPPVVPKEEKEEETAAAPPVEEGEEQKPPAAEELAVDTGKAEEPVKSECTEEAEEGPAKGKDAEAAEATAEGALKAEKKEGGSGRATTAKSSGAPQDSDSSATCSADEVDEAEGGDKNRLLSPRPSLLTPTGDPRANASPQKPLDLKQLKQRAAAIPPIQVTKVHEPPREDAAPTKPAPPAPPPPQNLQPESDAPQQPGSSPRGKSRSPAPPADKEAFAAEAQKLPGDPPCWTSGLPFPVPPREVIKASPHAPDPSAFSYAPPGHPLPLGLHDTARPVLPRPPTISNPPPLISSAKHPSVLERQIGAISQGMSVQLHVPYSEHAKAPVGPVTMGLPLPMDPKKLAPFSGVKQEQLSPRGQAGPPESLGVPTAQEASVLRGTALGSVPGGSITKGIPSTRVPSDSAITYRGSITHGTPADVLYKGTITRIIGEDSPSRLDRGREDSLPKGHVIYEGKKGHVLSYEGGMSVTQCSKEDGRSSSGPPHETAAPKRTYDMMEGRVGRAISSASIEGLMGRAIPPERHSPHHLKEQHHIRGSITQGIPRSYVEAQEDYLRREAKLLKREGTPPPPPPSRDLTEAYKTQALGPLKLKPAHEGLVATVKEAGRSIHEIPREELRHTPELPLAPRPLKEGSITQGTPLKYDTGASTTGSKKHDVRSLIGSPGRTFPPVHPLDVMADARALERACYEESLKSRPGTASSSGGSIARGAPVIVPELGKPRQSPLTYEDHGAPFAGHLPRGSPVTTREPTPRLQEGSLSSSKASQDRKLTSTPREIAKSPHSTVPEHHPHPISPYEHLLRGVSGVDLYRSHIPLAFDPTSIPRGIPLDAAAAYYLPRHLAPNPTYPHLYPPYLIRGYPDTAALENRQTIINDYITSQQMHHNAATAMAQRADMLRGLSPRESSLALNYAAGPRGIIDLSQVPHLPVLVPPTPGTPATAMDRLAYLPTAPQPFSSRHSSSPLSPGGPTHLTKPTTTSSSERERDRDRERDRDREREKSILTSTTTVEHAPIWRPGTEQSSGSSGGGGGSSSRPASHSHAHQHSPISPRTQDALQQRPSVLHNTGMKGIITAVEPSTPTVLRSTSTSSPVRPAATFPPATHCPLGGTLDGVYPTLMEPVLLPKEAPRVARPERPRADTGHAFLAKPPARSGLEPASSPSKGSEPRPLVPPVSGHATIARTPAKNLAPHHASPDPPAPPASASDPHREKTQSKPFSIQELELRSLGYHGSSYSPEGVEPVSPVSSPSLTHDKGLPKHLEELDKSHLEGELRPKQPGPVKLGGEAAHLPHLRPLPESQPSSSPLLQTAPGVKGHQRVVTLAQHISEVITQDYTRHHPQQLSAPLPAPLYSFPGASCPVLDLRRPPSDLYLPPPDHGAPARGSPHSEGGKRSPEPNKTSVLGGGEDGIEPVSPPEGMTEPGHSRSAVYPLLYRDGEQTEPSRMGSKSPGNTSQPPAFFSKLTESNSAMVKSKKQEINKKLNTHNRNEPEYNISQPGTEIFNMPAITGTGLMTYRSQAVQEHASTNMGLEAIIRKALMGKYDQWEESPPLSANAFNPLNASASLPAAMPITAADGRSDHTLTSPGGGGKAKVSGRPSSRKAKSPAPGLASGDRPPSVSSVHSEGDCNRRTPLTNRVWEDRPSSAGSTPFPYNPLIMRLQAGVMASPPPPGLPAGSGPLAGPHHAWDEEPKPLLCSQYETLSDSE
Chain of Sphingosine 1-phosphate receptor 1 (P21453 whole entry): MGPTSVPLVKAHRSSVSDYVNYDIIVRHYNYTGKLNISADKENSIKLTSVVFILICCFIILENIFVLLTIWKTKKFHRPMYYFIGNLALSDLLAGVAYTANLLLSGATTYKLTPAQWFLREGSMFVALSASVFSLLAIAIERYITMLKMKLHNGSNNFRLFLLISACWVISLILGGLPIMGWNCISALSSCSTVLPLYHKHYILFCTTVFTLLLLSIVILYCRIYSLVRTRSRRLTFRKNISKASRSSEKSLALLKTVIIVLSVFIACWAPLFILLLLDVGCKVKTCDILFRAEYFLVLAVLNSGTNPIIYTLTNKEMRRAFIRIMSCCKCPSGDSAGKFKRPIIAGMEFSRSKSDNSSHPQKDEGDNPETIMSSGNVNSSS

As for `O=S(=O)(c1ccc(Cl)c(Cl)c1)c1snnc1-c1ccccc1`, the EC50 was 18.3 µM (active) in experiment [1]; > 38 µM (not active) in [2]; 0.117 µM (active) in experiment [3]; 0.083 µM (active) in [5]; 9.7 µM (active) in experiment [8]; 0.504 µM (active) in [10]. Besides, the half-maximal inhibitory concentration (IC50) in [4] is 10.8 µM (not active); in experiment [6], 0.524 µM (active); in experiment [7] it was 4.29 µM (active). For the same compound, the AC50 in [9] is 2.89 µM (active).
As for `COC(=O)NC(/C(C(=O)OC)=C(\C)NCc1ccccc1)c1cccc(C)c1` (centres undefined), the AC50 in experiment [11] is 6.31 µM (inconclusive); in [12], 7.94 µM (inconclusive).
Turning to `NC(=O)c1ccc(NC(=O)CNC(=O)c2sc3ccccc3c2Cl)cc1`, the IC50 in experiment [13] is 2.8 µM (active); in experiment [14], 4.85 µM (active).
